The results in this text go back to patent US10683269B2 (MISSION THERAPEUTICS LIMITED, priority 2016, dated 2020).

SMILES strings stand for the structures. Some results are limits rather than exact numbers.

The assay deals with T1, USP7 (Homo sapiens, UniProt Q93009).
T1 construct: The USP7 construct was PCR amplified and cloned into a pFLAG-CMV-6a vector (Sigma-Aldrich) with an N-terminal FLAG tag; made in house; host or cells: HEK293T
T1 sequence (Q93009 whole entry): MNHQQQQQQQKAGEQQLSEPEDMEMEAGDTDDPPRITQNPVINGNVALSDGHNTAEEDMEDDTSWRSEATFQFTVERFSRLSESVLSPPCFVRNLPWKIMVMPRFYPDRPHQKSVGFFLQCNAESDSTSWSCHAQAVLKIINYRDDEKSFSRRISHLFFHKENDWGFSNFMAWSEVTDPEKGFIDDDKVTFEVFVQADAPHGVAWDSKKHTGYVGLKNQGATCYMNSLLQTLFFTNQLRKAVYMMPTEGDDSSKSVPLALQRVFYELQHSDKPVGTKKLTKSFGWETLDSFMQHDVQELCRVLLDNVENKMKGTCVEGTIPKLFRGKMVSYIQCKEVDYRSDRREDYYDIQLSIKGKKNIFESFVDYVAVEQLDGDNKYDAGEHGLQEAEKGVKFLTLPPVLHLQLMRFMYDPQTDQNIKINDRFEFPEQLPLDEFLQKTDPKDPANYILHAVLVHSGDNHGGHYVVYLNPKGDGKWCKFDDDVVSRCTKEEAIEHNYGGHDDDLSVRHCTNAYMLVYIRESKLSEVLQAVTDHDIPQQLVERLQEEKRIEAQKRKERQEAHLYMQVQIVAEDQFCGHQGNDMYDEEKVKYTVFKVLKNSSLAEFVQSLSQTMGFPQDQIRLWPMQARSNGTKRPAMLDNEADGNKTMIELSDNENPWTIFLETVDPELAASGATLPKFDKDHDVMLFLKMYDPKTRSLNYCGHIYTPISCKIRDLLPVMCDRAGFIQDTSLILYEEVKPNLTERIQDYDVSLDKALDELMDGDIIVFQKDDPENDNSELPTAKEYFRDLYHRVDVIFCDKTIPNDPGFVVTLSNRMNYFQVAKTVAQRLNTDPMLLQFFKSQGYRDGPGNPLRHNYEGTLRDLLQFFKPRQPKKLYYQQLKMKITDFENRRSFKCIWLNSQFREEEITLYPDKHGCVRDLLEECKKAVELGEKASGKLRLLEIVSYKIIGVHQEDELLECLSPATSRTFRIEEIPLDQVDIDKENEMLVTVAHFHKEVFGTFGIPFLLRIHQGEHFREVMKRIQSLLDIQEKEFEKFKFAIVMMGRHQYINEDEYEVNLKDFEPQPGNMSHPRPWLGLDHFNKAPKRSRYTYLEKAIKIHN
Put plainly: USP7 biochemical IC50 assay (fluorescence polarisation, TAMRA labelled peptide linked to ubiquitin via an iso-peptide bond). The conditions noted are these: 30 min pre-incubation of enzyme and compound, read after 2 hr incubation at room temperature, read-out: IC50 range. As to the method:
In Vitro USP7 Inhibition Assay
Expression and Purification of USP7
The USP7 construct was PCR amplified and cloned into a pFLAG-CMV-6a vector (Sigma-Aldrich) with an N-terminal FLAG tag. HEK293T cells were transfected with FLAG-USP7 using TransIT-LT1 transfection reagent (Mirus) according to the manufacturer's instructions. Cells were harvested 40 hours after transfection. […] The resin was washed two times with low salt buffer plus protease inhibitors (complete mini, Roche) and phosphatase inhibitors (PhosSTOP mini, Roche) and one time with high salt buffer (20 mM Tris, pH 7.5, 500 mM NaCl, 0.5 mM EDTA, 5 mM beta-mercaptoethanol, protease inhibitors (complete mini, Roche) and phosphatase inhibitors (PhosSTOP mini, Roche). To elute the bound USP7, elution buffer (10 mM Tris, pH 7.5, 150 mM NaCl, 0.5 mM EDTA, 10% glycerol, 0.5% NP40, 5 mM beta-mercaptoethanol, 0.15 mg/ml 3×FLAG peptide (Sigma-Aldrich)) was added to the resin and incubated at 4° C. for 2.5 hours rotating. The resin was centrifuged at 4000 rpm for 30 seconds, and the supernatant containing purified FLAG-USP7 was removed and stored at −80° C.
USP7 Biochemical IC50 Assay
A typical 8-point dilution series would be 100, 30, 10, 3, 1, 0.3, 0.1, 0.03 μM final. […] Either 1 μl of 50% DMSO or diluted compound was added to the plate. USP7 was diluted in reaction buffer (20 mM Tris, pH 7.5, 100 mM NaCl, 0.05% Tween 20, 0.5 mg/ml BSA, 5 mM—beta mercaptoethanol) to the equivalent of 0.0025 μl/well and 10 μl of diluted USP7 was added to the compound. Enzyme and compound were incubated for 30 min at room temp. Reactions were initiated by the addition of 50 nM of TAMRA labelled peptide linked to ubiquitin via an iso-peptide bond as fluorescence polarisation substrate. Reactions were read immediately after addition of substrate and following a 2 hr incubation at room temperature. Readings were performed on a Pherastar Plus (BMG Labtech). λ Excitation 540 nm; λ Emission 590 nm.
On the technique in general: Polarisation of emitted light reports the rotation of a fluorescent probe.
For the compound `CN1CCOC(C(=O)Nc2cc3c(c(-c4ccccc4)c2)CN(C#N)C3)C1` (stereo not shown) [Example 53, N-(2-cyano-7-phenylisoindolin-5-yl)-4-methylmorpholine-2-carboxamide], the IC50 (in general, the concentration that gives 50% inhibition) is below 1000 nM.
The same measure for `CCN1CCOC(C(=O)Nc2cc3c(c(-c4ccccc4)c2)CN(C#N)C3)C1` (stereo not shown) [Example 54, N-(2-cyano-7-phenylisoindolin-5-yl)-4-ethylmorpholine-2-carboxamide]: below 1000 nM; for `CC(C)N1CCOC(C(=O)Nc2cc3c(c(-c4ccccc4)c2)CN(C#N)C3)C1` (stereo not shown) [Example 55, N-(2-cyano-7-phenylisoindolin-5-yl)-4-isopropylmorpholine-2-carboxamide]: below 1000 nM.
Regarding `CN1CCCC(C(=O)Nc2cc3c(c(-c4ccccc4C(N)=O)c2)CN(C#N)C3)C1` (stereo not shown) [Example 56, N-(7-(2-carbamoylphenyl)-2-cyanoisoindolin-5-yl)-1-methylpiperidine-3-carboxamide], the IC50 was 1000 to 10000 nM.
The same measure for `CC(=O)Nc1cc2c(c(-c3ccccc3)c1)CN(C#N)C2` [Example 57]: 1000 to 10000 nM.
`CC(=O)N(C)c1cc2c(c(-c3ccccc3)c1)CN(C#N)C2` [Example 58, N-(2-cyano-7-phenylisoindolin-5-yl)-N-methylacetamide]: the half-inhibitory concentration (IC50) lay within 1000 to 10000 nM.
On to `CN1CCCC(C(=O)N(C)c2cc3c(c(-c4ccccc4)c2)CN(C#N)C3)C1` (stereo not shown) [Example 59, N-(2-cyano-7-phenylisoindolin-5-yl)-N,1-dimethylpiperidine-3-carboxamide], for which the IC50 fell in the range of 1000 to 10000 nM.
The value for `CN1CCN(C(=O)Nc2cc3c(c(-c4ccccc4)c2)CN(C#N)C3)CC1` [Example 60, N-(2-cyano-7-phenylisoindolin-5-yl)-4-methylpiperazine-1-carboxamide] was below 1000 nM; that for `CS(=O)(=O)Nc1cc2c(c(-c3ccccc3)c1)CN(C#N)C2` [Example 61, N-(2-cyano-7-phenylisoindolin-5-yl)methanesulfonamide] was 1000 to 10000 nM.
As for `N#CN1Cc2cc(NC(=O)C3CCCNC3)cc(-c3ccccc3)c2C1` (stereo not shown) [Example 62, N-(2-cyano-7-phenylisoindolin-5-yl)piperidine-3-carboxamide], the IC50 is below 1000 nM.
The value for `N#CN1Cc2cc(NC(=O)C3CCNCC3)cc(-c3ccccc3)c2C1` [Example 63, N-(2-cyano-7-phenylisoindolin-5-yl)piperidine-4-carboxamide] was 1000 to 10000 nM; that for `CN1CCCC(CNc2cc3c(c(-c4ccccc4)c2)CN(C#N)C3)C1` (stereo not shown) [Example 64, 6-(((1-methylpiperidin-3-yl)methyl)amino)-4-phenylisoindoline-2-carbonitrile] was below 1000 nM; that for `N#Cc1ccc(-c2cccc3c2CN(C#N)C3)c(Cl)c1` [Example 65, 4-(2-chloro-4-cyanophenyl)isoindoline-2-carbonitrile] was 1000 to 10000 nM.
`Cc1cc(C#N)ccc1-c1cccc2c1CN(C#N)C2` [Example 66, 4-(4-cyano-2-methylphenyl)isoindoline-2-carbonitrile]: the IC50 was 1000 to 10000 nM.
For `Cc1cc(C#N)cc(C)c1-c1cccc2c1CN(C#N)C2` [Example 67, 4-(4-cyano-2,6-dimethylphenyl)isoindoline-2-carbonitrile], the IC50 was in the range of 1000 to 10000 nM.
The value for `N#CN1Cc2cccc(-c3cccc4c3C(=O)NC4)c2C1` [Example 68, 3-oxo-[4,4′-biisoindoline]-2′-carbonitrile] was 1000 to 10000 nM.
Take `N#CN1Cc2cccc(-c3cccc4c3C(=O)NCC4)c2C1` [Example 69, 4-(1-oxo-1,2,3,4-tetrahydroisoquinolin-8-yl)isoindoline-2-carbonitrile]: the IC50 lay within 1000 to 10000 nM.
The same measure for `C[C@@H](O)c1ccccc1-c1cccc2c1CN(C#N)C2` [Example 70, (R)-4-(2-(1-hydroxyethyl)phenyl)isoindoline-2-carbonitrile]: 1000 to 10000 nM.
Consider `C[C@H](O)c1ccccc1-c1cccc2c1CN(C#N)C2` [Example 71, (S)-4-(2-(1-hydroxyethyl)phenyl)isoindoline-2-carbonitrile], for which the IC50 is 1000 to 10000 nM.
The same measure for `N#Cc1ccc(-c2cccc3c2CN(C#N)C3)c(C#N)c1` [Example 72, 4-(2-cyanoisoindolin-4-yl)isophthalonitrile]: below 1000 nM; for `N#CN1Cc2cccc(-c3cccc(C(=O)NCc4ccccc4)c3)c2C1` [Example 73, N-benzyl-3-(2-cyanoisoindolin-4-yl)benzamide]: 1000 to 10000 nM.
The same measure for `CC(NC(=O)c1cccc(-c2cccc3c2CN(C#N)C3)c1)c1ccccc1` (stereo not shown) [Example 74, 3-(2-cyanoisoindolin-4-yl)-N-(1-phenylethyl)benzamide]: 1000 to 10000 nM; for `N#CN1Cc2cccc(-c3cccc(C(=O)Nc4ccccc4)c3)c2C1` [Example 75, 3-(2-cyanoisoindolin-4-yl)-N-phenylbenzamide]: 1000 to 10000 nM; for `C[C@@H](NC(=O)c1cccc(-c2cccc3c2CN(C#N)C3)c1)c1ccccc1` [Example 76, (R)-3-(2-cyanoisoindolin-4-yl)-N-(1-phenylethyl)benzamide]: 1000 to 10000 nM.
The same measure for `N#CN1Cc2cccc(-c3ccccc3C(=O)NCCN)c2C1` [Example 77, N-(2-aminoethyl)-2-(2-cyanoisoindolin-4-yl)benzamide]: 1000 to 10000 nM.
`N#CN1Cc2cccc(-c3ccccc3C(=O)N3CCNCC3)c2C1` [Example 78, 4-(2-(piperazine-1-carbonyl)phenyl)isoindoline-2-carbonitrile]: the half-inhibitory concentration (IC50) fell in the range of 1000 to 10000 nM.
The value for `N#CN1Cc2cccc(-c3ccnc(C(=O)NCc4ccccc4)c3)c2C1` [Example 79, N-benzyl-4-(2-cyanoisoindolin-4-yl)picolinamide] was 1000 to 10000 nM; that for `N#CN1Cc2cccc(NC(=O)c3cccc(NC(=O)C4CC4)c3)c2C1` [Example 80, N-(2-cyanoisoindolin-4-yl)-3-(cyclopropanecarboxamido)benzamide] was 1000 to 10000 nM.
On to `N#CN1Cc2cccc(NC(=O)c3ccc(-c4cccnc4)cc3)c2C1` [Example 81, N-(2-cyanoisoindolin-4-yl)-4-(pyridin-3-yl)benzamide], for which the concentration for half-maximal inhibition (IC50) fell in the range of 1000 to 10000 nM.
The same measure for `N#CN1Cc2cccc(NC(=O)c3ccc(-c4ccncc4)cc3)c2C1` [Example 82, N-(2-cyanoisoindolin-4-yl)-4-(pyridin-4-yl)benzamide]: 1000 to 10000 nM; for `Cc1ccccc1-c1cc(C(=O)Nc2cccc3c2CN(C#N)C3)[nH]n1` [Example 83, N-(2-cyanoisoindolin-4-yl)-3-(o-tolyl)-1H-pyrazole-5-carboxamide]: 10000 to 30000 nM.
For `N#CN1Cc2cccc(NC(=O)c3csc(-c4ccccc4)n3)c2C1` [Example 84, N-(2-cyanoisoindolin-4-yl)-2-phenylthiazole-4-carboxamide], the half-inhibitory concentration (IC50) fell in the range of 10000 to 30000 nM.
The value for `COc1cc2cc(C(=O)Nc3cccc4c3CN(C#N)C4)[nH]c2cn1` [Example 85, N-(2-cyanoisoindolin-4-yl)-5-methoxy-1H-pyrrolo[2,3-c]pyridine-2-carboxamide] was 1000 to 10000 nM.
For `N#CN1Cc2cccc(NC(=O)c3cc(-c4cnccn4)[nH]n3)c2C1` [Example 86, N-(2-cyanoisoindolin-4-yl)-5-(pyrazin-2-yl)-1H-pyrazole-3-carboxamide], the half-maximal inhibitory concentration (IC50) lay within 1000 to 10000 nM.
The same measure for `N#CN1Cc2cccc(NC(=O)c3ccc(=O)n(Cc4ccccc4)c3)c2C1` [Example 87, 1-benzyl-N-(2-cyanoisoindolin-4-yl)-6-oxo-1,6-dihydropyridine-3-carboxamide]: 1000 to 10000 nM.
The same measure for `COCc1ccc(C(=O)Nc2cccc3c2CN(C#N)C3)cc1` [Example 88, N-(2-cyanoisoindolin-4-yl)-4-(methoxymethyl)benzamide]: 10000 to 30000 nM.
The value for `COC(=O)Nc1cccc(C(=O)Nc2cccc3c2CN(C#N)C3)c1` [Example 89, methyl (3-((2-cyanoisoindolin-4-yl)carbamoyl)phenyl)carbamate] was 1000 to 10000 nM.
Consider `N#CN1Cc2cccc(NC(=O)c3cccc(NC(=O)c4ccccc4)c3)c2C1` [Example 90, 3-benzamido-N-(2-cyanoisoindolin-4-yl)benzamide], for which the IC50 was in the range of 1000 to 10000 nM.
The same measure for `N#CN1Cc2cccc(NC(=O)c3ccc(CNC(=O)OCc4ccccc4)cc3)c2C1` [Example 91, benzyl (4-((2-cyanoisoindolin-4-yl)carbamoyl)benzyl carbamate]: 1000 to 10000 nM; for `N#CN1Cc2cccc(NC(=O)c3ccc(S(=O)(=O)Nc4ccccc4)cc3)c2C1` [Example 92, N-(2-cyanoisoindolin-4-yl)-4-(N-phenylsulfamoyl)benzamide]: 1000 to 10000 nM.
